The values below come from paper PMC5218480 (PLoS ONE, 2017).

This experiment concerns MV-4-11 cells. In words: Gene expression microarray analysis (Affymetrix PrimeView) and GSEA. To be noted: ProbeSet 11754362_a_at; LIST D. More on the design: RFU PODN (11730768_x_at) / Fold change /veh PODN (11730768_x_at) / RFU LINC00158 (11744669_a_at) / Fold change /veh LINC00158 (11744669_a_at) / RFU DUSP10 (11751237_a_at) / Fold change /veh DUSP10 (11751237_a_at) / RFU ID3 (11757404_x_at) / Fold change /veh ID3 (11757404_x_at) / RFU PLEKHG5 (11737974_s_at) / Fold change /veh PLEKHG5 (11737974_s_at) / RFU LRRC4B (11730491_at) / Fold change /veh LRRC4B (11730491_at) / RFU GIMAP4 (11747438_a_at) / Fold change /veh GIMAP4 (11747438_a_at) / RFU KRT8 (11758183_x_at) / Fold change /veh KRT8 (11758183_x_at) / RFU CNN1 (11734310_a_at) / Fold change /veh CNN1 (11734310_a_at) / RFU VPS37D (11726825_at) / Fold change /veh VPS37D (11726825_at) / RFU C10orf10 (11716522_x_at) / Fold change /veh C10orf10 (11716522_x_at) / RFU KIR2DL2 /// KIR2DL4 /// KIR2DL5A /// KIR2DL5B /// KIR2DS1 /// KIR2DS2 /// KIR2DS3 /// KIR2DS4 /// KIR3DL3 /// KIR3DL3 /// KIR3DS1 (11738374_at) / Fold change /veh KIR2DL2 /// KIR2DL4 /// KIR2DL5A /// KIR2DL5B /// KIR2DS1 /// KIR2DS2 /// KIR2DS3 /// KIR2DS4 /// KIR3DL3 /// KIR3DL3 /// KIR3DS1 (11738374_at) / RFU C1QL1 (11718748_at) / Fold change /veh C1QL1 (11718748_at) / RFU TMPRSS4 (11747572_a_at) / Fold change /veh TMPRSS4 (11747572_a_at) / RFU HAMP (11756126_x_at) / Fold change /veh HAMP (11756126_x_at) / RFU RNFT2 (11725882_a_at) / Fold change /veh RNFT2 (11725882_a_at) / RFU NR4A2 (11747474_a_at) / Fold change /veh NR4A2 (11747474_a_at) / RFU ABCC12 (11746883_a_at) / Fold change /veh ABCC12 (11746883_a_at) / RFU TMEM136 (11760407_x_at) / Fold change /veh TMEM136 (11760407_x_at) / RFU CLDN22 /// WWC2 (11732394_at) / Fold change /veh CLDN22 /// WWC2 (11732394_at) / RFU HLA-DPB1 (11760878_x_at) / Fold change /veh HLA-DPB1 (11760878_x_at) / RFU SPINT1 (11716480_a_at) / Fold change /veh SPINT1 (11716480_a_at) / RFU GAP43 (11754022_s_at) / Fold change /veh GAP43 (11754022_s_at) / RFU A4GNT (11735810_at) / Fold change /veh A4GNT (11735810_at) / RFU PRB3 (11715151_x_at) / Fold change /veh PRB3 (11715151_x_at) / RFU TUBB4B (11761932_at) / Fold change /veh TUBB4B (11761932_at) / RFU CAPN14 (11732068_a_at) / Fold change /veh CAPN14 (11732068_a_at) / RFU TMCC2 (11721928_a_at) / Fold change /veh TMCC2 (11721928_a_at) / RFU IRGQ (11745062_a_at) / Fold change /veh IRGQ (11745062_a_at) / RFU FAM174B (11720279_a_at) / Fold change /veh FAM174B (11720279_a_at) / RFU TMPRSS4 (11748680_a_at) / Fold change /veh TMPRSS4 (11748680_a_at) / RFU FAM212B (11763350_a_at) / Fold change /veh FAM212B (11763350_a_at) / RFU PLEKHG5 (11743358_a_at) / Fold change /veh PLEKHG5 (11743358_a_at) / RFU ZSCAN30 (11745921_a_at) / Fold change /veh ZSCAN30 (11745921_a_at) / RFU CMKLR1 (11741424_a_at) / Fold change /veh CMKLR1 (11741424_a_at) / RFU LOC101060620 /// MAPK8IP1 (11723275_at) / Fold change /veh LOC101060620 /// MAPK8IP1 (11723275_at) / RFU SPTSSB (11747773_x_at) / Fold change /veh SPTSSB (11747773_x_at) / RFU PRSS12 (11739890_at) / Fold change /veh PRSS12 (11739890_at) / RFU BIN1 (11741810_x_at) / Fold change /veh BIN1 (11741810_x_at) / RFU WNT11 (11732464_a_at) / Fold change /veh WNT11 (11732464_a_at) / RFU C10orf10 (11716521_a_at) / Fold change /veh C10orf10 (11716521_a_at) / RFU C5orf56 (11738089_at) / Fold change /veh C5orf56 (11738089_at) / RFU CYB561 (11721691_x_at) / Fold change /veh CYB561 (11721691_x_at) / RFU ANKRD19P (11752326_a_at) / Fold change /veh ANKRD19P (11752326_a_at) / RFU OR2T12 /// OR2T33 /// OR2T8 (11738714_s_at) / Fold change /veh OR2T12 /// OR2T33 /// OR2T8 (11738714_s_at) / RFU VCAN (11748164_a_at) / Fold change /veh VCAN (11748164_a_at) / RFU JSRP1 (11732532_at) / Fold change /veh JSRP1 (11732532_at) / RFU KRTAP10-11 (11738290_x_at) / Fold change /veh KRTAP10-11 (11738290_x_at) / RFU MYO3A (11730013_a_at) / Fold change /veh MYO3A (11730013_a_at) / RFU EBF3 (11725865_a_at) / Fold change /veh EBF3 (11725865_a_at) / RFU CAMK2N1 (11719241_x_at) / Fold change /veh CAMK2N1 (11719241_x_at) / RFU C5orf56 (11738088_a_at) / Fold change /veh C5orf56 (11738088_a_at) / RFU OLFML3 (11715873_a_at) / Fold change /veh OLFML3 (11715873_a_at) / RFU LOC100653217 /// NTM (11731650_a_at) / Fold change /veh LOC100653217 /// NTM (11731650_a_at) / RFU MAPK11 (11762145_a_at) / Fold change /veh MAPK11 (11762145_a_at) / RFU FIZ1 (11724087_x_at) / Fold change /veh FIZ1 (11724087_x_at) / RFU OASL (11726364_x_at) / Fold change /veh OASL (11726364_x_at) / RFU SOX15 (11748057_x_at) / Fold change /veh SOX15 (11748057_x_at) / RFU CD79A (11719716_a_at) / Fold change /veh CD79A (11719716_a_at) / RFU HIST1H1D (11736915_at) / Fold change /veh HIST1H1D (11736915_at) / RFU CASKIN2 (11723855_a_at) / Fold change /veh CASKIN2 (11723855_a_at) / RFU LOC730098 (11760151_x_at) / Fold change /veh LOC730098 (11760151_x_at) / RFU OR4N2 (11742367_at) / Fold change /veh OR4N2 (11742367_at) / RFU PRRT2 (11749266_a_at) / Fold change /veh PRRT2 (11749266_a_at) / RFU SNX32 (11753110_a_at) / Fold change /veh SNX32 (11753110_a_at) / RFU CDHR5 (11726645_a_at) / Fold change /veh CDHR5 (11726645_a_at) / RFU RCAN1 (11760418_a_at) / Fold change /veh RCAN1 (11760418_a_at) / RFU FAM167A (11723789_a_at) / Fold change /veh FAM167A (11723789_a_at) / RFU FAM26E (11764081_at) / Fold change /veh FAM26E (11764081_at) / RFU ISYNA1 (11749810_s_at) / Fold change /veh ISYNA1 (11749810_s_at) / RFU ACY1 (11761880_at) / Fold change /veh ACY1 (11761880_at) / RFU 11764098_at / Fold change /veh 11764098_at / RFU SAMD14 (11745864_x_at) / Fold change /veh SAMD14 (11745864_x_at) / RFU NPB (11741838_a_at) / Fold change /veh NPB (11741838_a_at) / RFU TMPRSS6 (11731388_a_at) / Fold change /veh TMPRSS6 (11731388_a_at) / RFU KRTAP10-2 (11738614_at) / Fold change /veh KRTAP10-2 (11738614_at) / RFU ARHGAP8 /// PRR5-ARHGAP8 (11727945_x_at) / Fold change /veh ARHGAP8 /// PRR5-ARHGAP8 (11727945_x_at) / RFU KRTAP5-7 /// NADSYN1 (11734609_at) / Fold change /veh KRTAP5-7 /// NADSYN1 (11734609_at) / RFU RASL12 (11751679_a_at) / Fold change /veh RASL12 (11751679_a_at) / RFU CDKN2B (11736163_a_at) / Fold change /veh CDKN2B (11736163_a_at) / RFU PRF1 (11729649_at) / Fold change /veh PRF1 (11729649_at) / RFU, ZNF638 /// ZNF638-IT1 / Fold change vs veh, ZNF638 /// ZNF638-IT1 / RFU, PANK3 / Fold change vs veh, PANK3 / RFU, SH3YL1 / Fold change vs veh, SH3YL1 / RFU, ZEB2 / Fold change vs veh, ZEB2 / RFU, NRIP1 / Fold change vs veh, NRIP1 / RFU, PTTG1IP / Fold change vs veh, PTTG1IP / RFU, CAPN2 / Fold change vs veh, CAPN2 / RFU, MED14 / Fold change vs veh, MED14 / RFU, SNORA58 / Fold change vs veh, SNORA58 / RFU, C1orf63 / Fold change vs veh, C1orf63 / RFU, LRRFIP1 / Fold change vs veh, LRRFIP1 / RFU, NDUFAF7 / Fold change vs veh, NDUFAF7 / RFU, SLC12A2 / Fold change vs veh, SLC12A2 / RFU, IBTK / Fold change vs veh, IBTK / RFU, ESF1 / Fold change vs veh, ESF1 / Fold change vs veh, TMEM50B / RFU, TAOK1 / Fold change vs veh, TAOK1 / RFU, ACBD3 / Fold change vs veh, ACBD3 / RFU, TMA16 / Fold change vs veh, TMA16 / RFU, RWDD3 / Fold change vs veh, RWDD3 / RFU, BCAT1 / Fold change vs veh, BCAT1 / RFU, EDEM3 / Fold change vs veh, EDEM3 / RFU, TMEM33 / Fold change vs veh, TMEM33 / RFU, WDR75 / Fold change vs veh, WDR75 / RFU, AHCTF1 / Fold change vs veh, AHCTF1 / RFU, TFRC / Fold change vs veh, TFRC / RFU, ZDHHC17 / Fold change vs veh, ZDHHC17 / RFU, NOM1 / Fold change vs veh, NOM1 / RFU, ARL8B / Fold change vs veh, ARL8B / RFU, ZBTB11 / Fold change vs veh, ZBTB11 / RFU, TAMM41 / Fold change vs veh, TAMM41 / RFU, KIAA1704 /// LOC100996395 / Fold change vs veh, KIAA1704 /// LOC100996395 / RFU, ING1 / Fold change vs veh, ING1 / RFU, TRMT61B / Fold change vs veh, TRMT61B / RFU, FUBP3 / Fold change vs veh, FUBP3 / RFU, TP53 / Fold change vs veh, TP53 / RFU, TNKS2 / Fold change vs veh, TNKS2 / RFU, ZFP14 / Fold change vs veh, ZFP14 / RFU, ACTR2 / Fold change vs veh, ACTR2 / RFU, PPP3R1 / Fold change vs veh, PPP3R1 / RFU, PIK3R1 / Fold change vs veh, PIK3R1 / RFU, HNRNPA1 / Fold change vs veh, HNRNPA1 / RFU, RNF170 / Fold change vs veh, RNF170 / RFU, ZNF28 / Fold change vs veh, ZNF28 / RFU, RNGTT / Fold change vs veh, RNGTT / RFU, OGT / Fold change vs veh, OGT / RFU, BRD1 / Fold change vs veh, BRD1 / RFU, MARS / Fold change vs veh, MARS / RFU, ZNF655 / Fold change vs veh, ZNF655 / RFU, FAHD1 / Fold change vs veh, FAHD1 / RFU, BDP1 / Fold change vs veh, BDP1 / RFU, LRRCC1 / Fold change vs veh, LRRCC1 / RFU, ARID1A / Fold change vs veh, ARID1A / RFU, ZNF146 / Fold change vs veh, ZNF146 / RFU, ZNF330 / Fold change vs veh, ZNF330 / RFU, GPN3 / Fold change vs veh, GPN3 / RFU, C9orf123 / Fold change vs veh, C9orf123 / RFU, N4BP2L2 / Fold change vs veh, N4BP2L2 / RFU, ARFIP1 / Fold change vs veh, ARFIP1 / RFU, FAM179B / Fold change vs veh, FAM179B / RFU, BCL10 / Fold change vs veh, BCL10 / RFU, UHRF1BP1L / Fold change vs veh, UHRF1BP1L / RFU, BET1 / Fold change vs veh, BET1 / RFU, CNOT2 / Fold change vs veh, CNOT2 / RFU, ZNF268 / Fold change vs veh, ZNF268 / Fold change vs veh, ZNF507 / RFU, DGCR2 / Fold change vs veh, DGCR2 / RFU, WDSUB1 / Fold change vs veh, WDSUB1 / Fold change vs veh, HSP90B1 /// MIR3652 / RFU, ADSS / Fold change vs veh, ADSS / RFU, GK / Fold change vs veh, GK / RFU, ZNF148 / Fold change vs veh, ZNF148 / RFU, TAF9 / Fold change vs veh, TAF9 / RFU, SLC1A5 / Fold change vs veh, SLC1A5 / RFU, SLMO2 / Fold change vs veh, SLMO2 / RFU, ABCC4 / Fold change vs veh, ABCC4 / RFU, LOC101060439 /// RAP1B / Fold change vs veh, LOC101060439 /// RAP1B / RFU, RFX7 / Fold change vs veh, RFX7 / RFU, GTPBP10 / Fold change vs veh, GTPBP10 / RFU, CNEP1R1 / Fold change vs veh, CNEP1R1 / RFU, BIVM-ERCC5 /// ERCC5 / Fold change vs veh, BIVM-ERCC5 /// ERCC5 / RFU, ILF3 / Fold change vs veh, ILF3 / RFU 11762660_at / Fold change /veh 11762660_at / RFU VCAN (11757783_s_at) / Fold change /veh VCAN (11757783_s_at) / RFU DDX43 (11728927_at) / Fold change /veh DDX43 (11728927_at) / RFU KRT8 (11758188_x_at) / Fold change /veh KRT8 (11758188_x_at) / RFU NKD1 (11759106_at) / Fold change /veh NKD1 (11759106_at) / RFU SRD5A1 (11742802_a_at) / Fold change /veh SRD5A1 (11742802_a_at) / RFU TPSAB1 /// TPSB2 (11721975_s_at) / Fold change /veh TPSAB1 /// TPSB2 (11721975_s_at) / RFU GSTM3 (11746129_a_at) / Fold change /veh GSTM3 (11746129_a_at) / RFU IL23R (11737362_x_at) / Fold change /veh IL23R (11737362_x_at) / RFU TMEM51 (11727254_a_at) / Fold change /veh TMEM51 (11727254_a_at) / RFU PIWIL2 (11732686_x_at) / Fold change /veh PIWIL2 (11732686_x_at) / RFU ORM1 (11744905_x_at) / Fold change /veh ORM1 (11744905_x_at) / RFU CCDC152 (11743942_at) / Fold change /veh CCDC152 (11743942_at) / RFU ECM1 (11717891_a_at) / Fold change /veh ECM1 (11717891_a_at) / RFU IL23R (11748794_a_at) / Fold change /veh IL23R (11748794_a_at) / RFU TNFAIP8L3 (11732012_x_at) / Fold change /veh TNFAIP8L3 (11732012_x_at) / RFU MBOAT4 (11741988_at) / Fold change /veh MBOAT4 (11741988_at) / RFU 11764193_at / Fold change /veh 11764193_at / RFU TMEM53 (11763286_at) / Fold change /veh TMEM53 (11763286_at) / RFU MAGEB2 (11727129_at) / Fold change /veh MAGEB2 (11727129_at) / RFU TMEM200A (11744735_a_at) / Fold change /veh TMEM200A (11744735_a_at) / RFU CCDC152 (11751479_a_at) / Fold change /veh CCDC152 (11751479_a_at) / RFU FAM211A (11726209_a_at) / Fold change /veh FAM211A (11726209_a_at) / RFU RGS16 (11746705_a_at) / Fold change /veh RGS16 (11746705_a_at) / RFU VCAN (11755009_s_at) / Fold change /veh VCAN (11755009_s_at) / RFU RHOB (11743442_s_at) / Fold change /veh RHOB (11743442_s_at) / RFU RGS16 (11720943_a_at) / Fold change /veh RGS16 (11720943_a_at) / RFU RGS16 (11720944_at) / Fold change /veh RGS16 (11720944_at) / RFU, VPS4B / Fold change vs veh, VPS4B / RFU, CREB1 / Fold change vs veh, CREB1 / RFU, DNAJC13 / Fold change vs veh, DNAJC13 / RFU, GNAQ / Fold change vs veh, GNAQ / RFU, CDK5R1 / Fold change vs veh, CDK5R1 / RFU, ZRANB3 / Fold change vs veh, ZRANB3 / RFU, CUL4A / Fold change vs veh, CUL4A / RFU, CCNY / Fold change vs veh, CCNY / RFU, UFL1 / Fold change vs veh, UFL1 / RFU, COG3 / Fold change vs veh, COG3 / RFU, DIAPH2 / Fold change vs veh, DIAPH2 / RFU, SKA2 / Fold change vs veh, SKA2 / RFU, AFF3 / Fold change vs veh, AFF3 / RFU, LMF1 / Fold change vs veh, LMF1 / RFU, IPO11 / Fold change vs veh, IPO11 / RFU, DFFB / Fold change vs veh, DFFB / RFU, FOXP1 / Fold change vs veh, FOXP1 / RFU, CARD8 / Fold change vs veh, CARD8 / RFU, STRN3 / Fold change vs veh, STRN3 / RFU, ADK / Fold change vs veh, ADK / RFU, RASSF2 / Fold change vs veh, RASSF2 / RFU, WIPF1 / Fold change vs veh, WIPF1 / RFU, LARP1B / Fold change vs veh, LARP1B / RFU, RASA1 / Fold change vs veh, RASA1 / RFU, RB1 / Fold change vs veh, RB1 / RFU, PPFIA1 / Fold change vs veh, PPFIA1 / RFU, MAT2A / Fold change vs veh, MAT2A / RFU, CCT5 / Fold change vs veh, CCT5 / RFU, WDR92 / Fold change vs veh, WDR92 / RFU, CUX1 / Fold change vs veh, CUX1 / RFU, TTC7A / Fold change vs veh, TTC7A / RFU, TMEM135 / Fold change vs veh, TMEM135 / RFU, DEPTOR / Fold change vs veh, DEPTOR / RFU, CPM / Fold change vs veh, CPM / RFU, DNAJB6 / Fold change vs veh, DNAJB6 / RFU, CACNA2D3 / Fold change vs veh, CACNA2D3 / RFU, DTX4 / Fold change vs veh, DTX4 / RFU, TFCP2 / Fold change vs veh, TFCP2 / RFU, GMCL1 /// GMCL1P1 / Fold change vs veh, GMCL1 /// GMCL1P1 / RFU, AEBP2 / Fold change vs veh, AEBP2 / RFU, SNHG1 /// SNORD22 /// SNORD25 /// SNORD26 /// SNORD27 /// SNORD28 /// SNORD29 /// SNORD31 / Fold change vs veh, SNHG1 /// SNORD22 /// SNORD25 /// SNORD26 /// SNORD27 /// SNORD28 /// SNORD29 /// SNORD31 / Fold change (Aza/veh), C12orf56 (ProbeSet 11735607_a_at) / Fold change (ACY-1035/veh), C12orf56 (ProbeSet 11735607_a_at) / Fold change (Aza/veh), FGFR1OP (ProbeSet 11751329_s_at) / Fold change (ACY-1035/veh), FGFR1OP (ProbeSet 11751329_s_at) / Fold change (Aza/veh), VPS36 (ProbeSet 11739960_a_at) / Fold change (ACY-1035/veh), VPS36 (ProbeSet 11739960_a_at) / RFU SYPL1 (11715823_x_at) / Fold change /veh SYPL1 (11715823_x_at) / RFU IGFBP7 (11715501_s_at) / Fold change /veh IGFBP7 (11715501_s_at) / RFU REEP3 (11722064_at) / Fold change /veh REEP3 (11722064_at) / RFU IGLL1 (11728026_x_at) / Fold change /veh IGLL1 (11728026_x_at): dose or concentration left out as unconfirmed. The class given is cell-based, human.

SMILES strings stand for the structures.

As for `Nc1ccc(-c2cccs2)cc1NC(=O)c1ccc2c(c1)cc(C1CC1)n2CCN1CCOCC1` [ACY-1035], the “Fold change vs veh, TTC7A” value was 0.87.
